Results: BigSolDB 2.1
Values joined by “and” are separate entries in the source; they are usually repeats but may differ in a detail not shown here. Equal values may be shown once.

C[C@@H](O[C@H]1OCCN(Cc2n[nH]c(=O)[nH]2)[C@H]1c1ccc(F)cc1)c1cc(C(F)(F)F)cc(C(F)(F)F)c1
Conditions	solubility (mole fraction)
in acetone, 284.75 K	0.00512
in acetone, 289.85 K	0.00582
in acetone, 291.45 K	0.00601
in acetone, 295.95 K	0.00663
in acetone, 299.85 K	0.00719
in acetone, 301.45 K	0.00741
in acetone, 303.75 K	0.00778
in acetone, 305.65 K	0.00808
in acetone, 307.55 K	0.0084
in acetone, 313.85 K	0.00955
in acetone, 317.75 K	0.0104
in acetone, 324.65 K	0.0118
in acetonitrile, 285.55 K	0.000172
in acetonitrile, 289.55 K	0.000196
in acetonitrile, 293.45 K	0.000235
in acetonitrile, 295.95 K	0.000262
in acetonitrile, 302.85 K	0.000344
in acetonitrile, 304.35 K	0.000368
in acetonitrile, 306.55 K	0.000398
in acetonitrile, 309.55 K	0.000444
in acetonitrile, 312.35 K	0.000509
in acetonitrile, 318.85 K	0.00063
in acetonitrile, 320.85 K	0.00067
in acetonitrile, 327.95 K	0.000853
in ethanol, 283.55 K	0.00166
in ethanol, 290.85 K	0.00209
in ethanol, 293.55 K	0.00223
in ethanol, 295.95 K	0.0024
in ethanol, 298.35 K	0.00251
in ethanol, 301.55 K	0.00279
in ethanol, 303.85 K	0.00294
in ethanol, 306.25 K	0.00316
in ethanol, 308.25 K	0.00333
in ethanol, 315.25 K	0.00396
in ethanol, 318.45 K	0.00432
in ethanol, 324.85 K	0.00505
in methanol, 284.45 K	0.00314
in methanol, 288.75 K	0.00343
in methanol, 292.15 K	0.00374
in methanol, 296.35 K	0.00405
in methanol, 298.45 K	0.00422
in methanol, 300.75 K	0.00445 and 0.00463
in methanol, 302.65 K	0.00495
in methanol, 306.65 K	0.00513
in methanol, 308.45 K	0.00568
in methanol, 313.65 K	0.00619
in methanol, 318.25 K	0.00676
in n-butanol, 285.45 K	0.00115
in n-butanol, 288.85 K	0.00131
in n-butanol, 293.25 K	0.00154
in n-butanol, 295.45 K	0.00164
in n-butanol, 298.15 K	0.00177
in n-butanol, 301.75 K	0.002
in n-butanol, 303.75 K	0.00219
in n-butanol, 306.35 K	0.00235
in n-butanol, 308.85 K	0.00258
in n-butanol, 313.45 K	0.00292
in n-butanol, 317.45 K	0.00335
in n-butanol, 322.25 K	0.00392
in n-propanol, 283.75 K	0.00127
in n-propanol, 290.75 K	0.00162
in n-propanol, 294.75 K	0.00187
in n-propanol, 296.95 K	0.00198
in n-propanol, 298.55 K	0.00207
in n-propanol, 300.15 K	0.00215
in n-propanol, 303.05 K	0.00241
in n-propanol, 306.25 K	0.00262
in n-propanol, 308.75 K	0.00285
in n-propanol, 314.35 K	0.00331
in n-propanol, 318.35 K	0.0037
in n-propanol, 325.35 K	0.00463
